{
  "source": "PubChem BioAssay AID1963832",
  "about": "(Molecular Pharmacology Branch, DTP, NCI, 2024)",
  "system": "885724-159-R-J1-PDC complex spheroid viability",
  "experiment": "Anticancer human tumor 885724-159-R-J1-PDC patient-derived pancreatic adenocarcinoma cell line growth inhibition [POLQ]",
  "details": "for IC50: curve of first compound; for viability, T/C: stronger effect = lower value",
  "description": "Multicellular complex tumor spheroid response to Polymerase (POL) inhibitors (novobiocin, ART-558, RP6685) in combination with a variety of drugs and investigational agents in selected tumor cell lines\nThe POL inhibitors (novobiocin, ART-558, and RP6685) were evaluated both individually and in combination with standard of care and investigational anticancer small molecules within a complex spheroid model of solid tumors. . Complex spheroids include a stromal component modeled by human endothelial cells (HUVEC) and fibroblasts modeled by human mesenchymal stem cells (MSCs). The concentration ranges selected for each drug and investigational agent were based upon clinically achievable concentrations if the clinical Cmax of the agent was known.\nCompounds. The drugs and investigational agents: novobiocin (NSC847541), ART-558 (NSC835418), RP-6685 (NSC848927), peposertib (NSC802822), ceralasertib (NSC780249), elimusertib (NSC800525), camonsertib (NSC841442), AZD-1390 (NSC803789), olaparib (NSC753686), talazoparib (NSC767125), rucaparib (NSC756644), sotorasib (NSC818433), MRTX-1133 (NSC836407), SN-38 (NSC673596), topotecan (NSC609699), epotoside (NSC141540), doxorubicin (NSC123127), gemcitabine (NSC613327), 5-fluorouracil (NSC19893), paclitaxel (NSC125973), vemurafenib (NSC761431), MSA-2 (NSC828583), SN-011 (NSC837082), adavosertib (NSC754352), prexasertib (NSC758257), carboplatin (NSC241240) and oxaliplatin (NSC266046), were obtained from the National Cancer Institute (NCI) Developmental Therapeutics Program Chemical Repository (21). The FDA-approved anticancer drug set is available from the Developmental Therapeutics Program at https://dtp.cancer.gov/organization/dscb/obtaining/. […] The stock solutions were prepared in dimethyl sulfoxide (DMSO, Sigma-Aldrich, St. Louis, MO, cat. D2650), except for the platinum compounds which were prepared in saline (Quality Biological, Gaithersburg, MD, cat. 114-055-101), at 800-fold the tested concentration and stored at -70 degrees C prior to their use. All drugs and investigational agents were tested over a range starting from a high concentration at or near the clinical Cmax and decreasing in half-log increments. If the clinical Cmax for an agent had not been determined, the highest concentration tested was 10 microM, except for SN-38, which was tested at a high concentration of 1 microM.\nCell Culture. All cells were maintained in an incubator at 37 degrees C and 5% CO2 with 95% humidity. The PDC lines were cultured according to standard operating procedures established by the NCI PDMR (https://pdmr.cancer.gov). Table 3 of the manuscript, lists the cell lines along with the number of the three cell types plated to form the mct-spheroids and media for tumor cell growth. After thawing, all PDC lines, except 997537-175-T-J1-PDC and 415267-285-R-J2-PDC, were cultured in Matrigel-coated flasks prepared with a working solution of 1X Ham's F-12 nutrient mix, without supplementation (Thermo Fisher Scientific, cat. 11765054), 100 U/mL penicillin-streptomycin (Thermo Fisher Scientific, cat. 15140122), and 2.5% Matrigel (Corning Inc., Corning, NY, cat. 354248) for the first three passages. The two PDC lines 997537-175-T-J1-PDC and 415267-285-R-J2-PDC were cultured on uncoated flasks. The 857933-349-R-J2-PDC line was cultured in 6C/Colon 1B media containing advanced DMEM/F-12 (Thermo Fisher Scientific, cat. 12634028), 10 mM HEPES (Thermo Fisher Scientific, cat. 15630080), 1X GlutaMAX supplement (Thermo Fisher Scientific, cat. 35050061), 0.1 mg/mL primocin (InvivoGen, San Diego, CA, cat. ant-pm-2), 10% defined fetal bovine serum, heat inactivated (HyClone Laboratories Inc., Logan, UT, cat. SH30070.03HI), 50% L-WRN conditioned media (ATCC, cat. CRL-3276), 1.25 mM N-Acetyl-L-cysteine (Sigma-Aldrich, cat. A9165), 10 mM nicotinamide (Sigma-Aldrich, cat. N0636), 1X B-27 supplement (Thermo Fisher Scientific, cat. 17504044), 1X N-2 supplement (Thermo Fisher Scientific, cat. […]",
  "data": [
    {"compound": "CCc1cc2c(N3CCc4c(cc(Cn5ccnc5)cc4-c4cn(C)nc4C(F)(F)F)C3=O)cc(C)nc2c(OC)n1", "note": "+ Cc1cccc(N(C)C(=O)C2C(O)CCN2c2nc(C)cc(C(F)(F)F)c2C#N)c1;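 note: spheroids exposed to compounds for 7 days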", "values": [
      {"measurement": "IC50", "setting": "second compound 0.0316 µM", "value": "> 10", "unit": "µM"},
      {"measurement": "IC50", "setting": "second compound 0.1 µM", "value": "> 10", "unit": "µM"},
      {"measurement": "IC50", "setting": "second compound 0.316 µM", "value": "> 10", "unit": "µM"},
      {"measurement": "IC50", "setting": "second compound 1 µM", "value": "> 10", "unit": "µM"},
      {"measurement": "IC50", "setting": "second compound 3.16 µM", "value": "> 10", "unit": "µM"},
      {"measurement": "IC50", "setting": "second compound 10 µM", "value": "> 10", "unit": "µM"},
      {"measurement": "viability, T/C", "setting": "second compound 0.0316 µM, first compound 0.0316 µM", "value": 86.5, "unit": "%"},
      {"measurement": "viability, T/C", "setting": "second compound 0.0316 µM, first compound 0.1 µM", "value": 82, "unit": "%"},
      {"measurement": "viability, T/C", "setting": "second compound 0.0316 µM, first compound 0.316 µM", "value": 84.8, "unit": "%"},
      {"measurement": "viability, T/C", "setting": "second compound 0.0316 µM, first compound 1 µM", "value": 75.2, "unit": "%"},
      {"measurement": "viability, T/C", "setting": "second compound 0.0316 µM, first compound 3.16 µM", "value": 83.1, "unit": "%"},
      {"measurement": "viability, T/C", "setting": "second compound 0.0316 µM, first compound 10 µM", "value": 70.1, "unit": "%"},
      {"measurement": "viability, T/C", "setting": "second compound 0.1 µM, first compound 0.0316 µM", "value": 85.9, "unit": "%"},
      {"measurement": "viability, T/C", "setting": "second compound 0.1 µM, first compound 0.1 µM", "value": 86.2, "unit": "%"},
      {"measurement": "viability, T/C", "setting": "second compound 0.1 µM, first compound 0.316 µM", "value": 84.6, "unit": "%"},
      {"measurement": "viability, T/C", "setting": "second compound 0.1 µM, first compound 1 µM", "value": 81.7, "unit": "%"},
      {"measurement": "viability, T/C", "setting": "second compound 0.1 µM, first compound 3.16 µM", "value": 78.5, "unit": "%"},
      {"measurement": "viability, T/C", "setting": "second compound 0.1 µM, first compound 10 µM", "value": 68.1, "unit": "%"},
      {"measurement": "viability, T/C", "setting": "second compound 0.316 µM, first compound 0.0316 µM", "value": 89.1, "unit": "%"},
      {"measurement": "viability, T/C", "setting": "second compound 0.316 µM, first compound 0.1 µM", "value": 83.5, "unit": "%"},
      {"measurement": "viability, T/C", "setting": "second compound 0.316 µM, first compound 0.316 µM", "value": 84.3, "unit": "%"},
      {"measurement": "viability, T/C", "setting": "second compound 0.316 µM, first compound 1 µM", "value": 83.9, "unit": "%"},
      {"measurement": "viability, T/C", "setting": "second compound 0.316 µM, first compound 3.16 µM", "value": 77.4, "unit": "%"},
      {"measurement": "viability, T/C", "setting": "second compound 0.316 µM, first compound 10 µM", "value": 68.7, "unit": "%"},
      {"measurement": "viability, T/C", "setting": "second compound 1 µM, first compound 0.0316 µM", "value": 93.5, "unit": "%"},
      {"measurement": "viability, T/C", "setting": "second compound 1 µM, first compound 0.1 µM", "value": 92.1, "unit": "%"},
      {"measurement": "viability, T/C", "setting": "second compound 1 µM, first compound 0.316 µM", "value": 86, "unit": "%"},
      {"measurement": "viability, T/C", "setting": "second compound 1 µM, first compound 1 µM", "value": 79.2, "unit": "%"},
      {"measurement": "viability, T/C", "setting": "second compound 1 µM, first compound 3.16 µM", "value": 76.1, "unit": "%"},
      {"measurement": "viability, T/C", "setting": "second compound 1 µM, first compound 10 µM", "value": 68, "unit": "%"},
      {"measurement": "viability, T/C", "setting": "second compound 3.16 µM, first compound 0.0316 µM", "value": 93.2, "unit": "%"},
      {"measurement": "viability, T/C", "setting": "second compound 3.16 µM, first compound 0.1 µM", "value": 84.9, "unit": "%"},
      {"measurement": "viability, T/C", "setting": "second compound 3.16 µM, first compound 0.316 µM", "value": 88.2, "unit": "%"},
      {"measurement": "viability, T/C", "setting": "second compound 3.16 µM, first compound 1 µM", "value": 84.5, "unit": "%"},
      {"measurement": "viability, T/C", "setting": "second compound 3.16 µM, first compound 3.16 µM", "value": 72.9, "unit": "%"},
      {"measurement": "viability, T/C", "setting": "second compound 3.16 µM, first compound 10 µM", "value": 75.4, "unit": "%"},
      {"measurement": "viability, T/C", "setting": "second compound 10 µM, first compound 0.0316 µM", "value": 83.9, "unit": "%"},
      {"measurement": "viability, T/C", "setting": "second compound 10 µM, first compound 0.1 µM", "value": 91, "unit": "%"},
      {"measurement": "viability, T/C", "setting": "second compound 10 µM, first compound 0.316 µM", "value": 87.5, "unit": "%"},
      {"measurement": "viability, T/C", "setting": "second compound 10 µM, first compound 1 µM", "value": 81.6, "unit": "%"},
      {"measurement": "viability, T/C", "setting": "second compound 10 µM, first compound 3.16 µM", "value": 75.8, "unit": "%"},
      {"measurement": "viability, T/C", "setting": "second compound 10 µM, first compound 10 µM", "value": 71, "unit": "%"}
    ]}
  ]
}
